Data: patent publication US20100226987A1, “TARGETING CONJUGATES COMPRISING ACTIVE AGENTS ENCAPSULATED IN CYCLODEXTRIN-CONTAINING POLYMERS” (CAPSUTECH LTD., priority 2007, published 2010)

Test system: human nasopharyngeal KB cancer cells, which overexpress the folate receptor (FR)
Assay: In vitro binding of RhB-encapsulating conjugates to KB cells (fluorescence counting and fluorescence microscopy)
Type: cell-based
Conditions: control = mixture of non-encapsulated RhB, free CD derivative, PEG and FA, FIGS. 1A-1B
Protocol: Cell culture. KB cells (ATCC CCL-17) were obtained from ATCC and grown on Minimum essential medium (Eagle) with 2 mM L-glutamine; 0.1 mM non-essential amino acids; 0.2 Earle's BSS adjusted to contain 1.5 g/l sodium bicarbonate; and 1.0 mM sodium pyruvate, 90%; heat inactivated fetal bovine serum, 10%. Cells were subcultured according to the ATCC recommended protocol. After 3 cycles of splitting at 85% confluence, 2,000 to 50,000 cells were seeded on transparent 96 well plate. Following 24 hours it was decided that optimal conditions would be seeding 35,000 cells per well for assay to be carried out in the following day. […]
KB cancer cells were cultured as described in Materials and Methods, and seeded on both Black and transparent 96 well plates for fluorescence counting and fluorescent microscopy. […] The medium was then washed 3 times with PBS 1 X, and fluorescence associated with the cells in both plates was counted using Analyst HT (Ex 525 nm, Dc 560 nm, Em 595 nm). The net fluorescence was calculated by subtracting the averaged background fluorescence form the fluorescence of the conjugate-treated cells. The transparent plate was further analyzed by fluorescence microscopy.

Substance: Di-CD-Glu-PEG3350-FA-RhB [Conjugate 55]
- fluorescence of treated cells higher relative to control: 780%
